According to US20230219904A1 (SYNGENTA CROP PROTECTION AG, priority 2020, published 2023):

Assays:
Type in all cases: in vivo
Settings in all cases: evaluated after 13 days
[1] = tested on: Ipomoea hederacea (IPOHE); experiment: Post-emergence herbicidal glasshouse test (Table B1)
Summary of the method: (§1)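 Pre: spray 1 d after sowing; post: spray after 8 d growth. Rate 500 g/h (default); vehicle acetone/water 50:50, 0.5% Tween 20. Glasshouse 24/16° C, 14 h light, 65% humidity. Readout % damage at 13 d, 5-point scale.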

[2] = tested on: Abutilon theophrasti (ABUTH); experiment: as above
Summary of the method: as §1

[3] = tested on: Setaria faberi (SETFA); experiment: as above
Summary of the method: as §1

[4] = tested on: Echinochloa crus-galh (ECHCG); experiment: as above
Summary of the method: as §1

[5] = tested on: Amaranthus retoflexus (AMARE); experiment: as above
Summary of the method: as §1

[6] = tested on: Ipomoea hederacea (IPOHE); experiment: Pre-emergence herbicidal glasshouse test (Table B1)
Summary of the method: as §1

[7] = tested on: Abutilon theophrasti (ABUTH); experiment: as above
Summary of the method: as §1

[8] = tested on: Setaria faberi (SETFA); experiment: as above
Summary of the method: as §1

[9] = tested on: Echinochloa crus-galh (ECHCG); experiment: as above
Summary of the method: as §1

[10] = tested on: Amaranthus retoflexus (AMARE); experiment: as above
Summary of the method: as §1

| SMILES | POST Application IPOHE, percentage damage on five-point scale ([1]; applied at 500 g/h) | POST Application ABUTH, percentage damage on five-point scale ([2]; applied at 500 g/h) | POST Application SETFA, percentage damage on five-point scale ([3]; applied at 500 g/h) | POST Application ECHCG, percentage damage on five-point scale ([4]; applied at 500 g/h) | POST Application AMARE, percentage damage on five-point scale ([5]; applied at 500 g/h) | PRE Application IPOHE, percentage damage on five-point scale ([6]; applied) | PRE Application ABUTH, percentage damage on five-point scale ([7]; applied at 500 g/h) | PRE Application SETFA, percentage damage on five-point scale ([8]; applied at 500 g/h) | PRE Application ECHCG, percentage damage on five-point scale ([9]; applied at 500 g/h) | PRE Application AMARE, percentage damage on five-point scale ([10]; applied at 500 g/h) | POST Application IPOHE, percentage damage on five-point scale ([1]; applied at 125 g/ha) | POST Application ABUTH, percentage damage on five-point scale ([2]; applied at 125 g/ha) | POST Application SETFA, percentage damage on five-point scale ([3]; applied at 125 g/ha) | POST Application ECHCG, percentage damage on five-point scale ([4]; applied at 125 g/ha) | POST Application AMARE, percentage damage on five-point scale ([5]; applied at 125 g/ha) | PRE Application IPOHE, percentage damage on five-point scale ([6]; applied at 125 g/ha) | PRE Application ABUTH, percentage damage on five-point scale ([7]; applied at 125 g/ha) | PRE Application SETFA, percentage damage on five-point scale ([8]; applied at 125 g/ha) | PRE Application ECHCG, percentage damage on five-point scale ([9]; applied at 125 g/ha) | PRE Application AMARE, percentage damage on five-point scale ([10]; applied at 125 g/ha) |
| --- | --- | --- | --- | --- | --- | --- | --- | --- | --- | --- | --- | --- | --- | --- | --- | --- | --- | --- | --- | --- |
| CCn1nnnc1NC(=O)c1ccc(OC(F)(F)F)c(NC(=O)C2CC2)c1Cl [Compound 1.117] | 5 (5=80-100%) | 5 (5=80-100%) | 5 (5=80-100%) | 5 (5=80-100%) | 5 (5=80-100%) | 4 (4=60-79%) | 5 (5=80-100%) | 4 (4=60-79%) | 5 (5=80-100%) | 5 (5=80-100%) |  |  |  |  |  |  |  |  |  |  |
| CCn1nnnc1NC(=O)c1ccc(OC(F)(F)F)c(NC(=O)C(C)C)c1Cl [Compound 1.118] |  |  |  |  |  |  |  |  |  |  | 4 (4=60-79%) | 4 (4=60-79%) | 4 (4=60-79%) | 4 (4=60-79%) | 4 (4=60-79%) | 2 (2=20-39%) | 4 (4=60-79%) | 4 (4=60-79%) | 5 (5=80-100%) | 4 (4=60-79%) |
| CCC(=O)Nc1c(OC(F)(F)F)ccc(C(=O)Nc2nnnn2CC)c1Cl [Compound 1.119] | 5 (5=80-100%) | 5 (5=80-100%) | 5 (5=80-100%) | 5 (5=80-100%) | 5 (5=80-100%) | 4 (4=60-79%) | 5 (5=80-100%) | 2 (2=20-39%) | 5 (5=80-100%) | 5 (5=80-100%) |  |  |  |  |  |  |  |  |  |  |
| COCCC(=O)Nc1c(OC(F)(F)F)ccc(C(=O)Nc2nnnn2C)c1Cl [Compound 1.120] | 5 (5=80-100%) | 5 (5=80-100%) | 5 (5=80-100%) | 5 (5=80-100%) | 5 (5=80-100%) | 1 (1=0-19%) | 4 (4=60-79%) | 1 (1=0-19%) | 5 (5=80-100%) | 5 (5=80-100%) |  |  |  |  |  |  |  |  |  |  |
| CCCC(=O)Nc1c(OC(F)(F)F)ccc(C(=O)Nc2nnnn2C)c1Cl [Compound 1.121] | 5 (5=80-100%) | 5 (5=80-100%) | 5 (5=80-100%) | 5 (5=80-100%) | 5 (5=80-100%) | 2 (2=20-39%) | 4 (4=60-79%) | 1 (1=0-19%) | 5 (5=80-100%) | 5 (5=80-100%) |  |  |  |  |  |  |  |  |  |  |
